Assay results published in patent US5578445A, “In vitro method of evaluating the effects of a substance” (priority 1991, dated 1996).

How the values were obtained:
estrogen receptor [1] = target: T1, estrogen receptor (Homo sapiens, UniProt P03372); experiment: Cathepsin D secretion into medium, MCF7 in petridishes, Cath D RIA
T1 sequence (P03372 1-595): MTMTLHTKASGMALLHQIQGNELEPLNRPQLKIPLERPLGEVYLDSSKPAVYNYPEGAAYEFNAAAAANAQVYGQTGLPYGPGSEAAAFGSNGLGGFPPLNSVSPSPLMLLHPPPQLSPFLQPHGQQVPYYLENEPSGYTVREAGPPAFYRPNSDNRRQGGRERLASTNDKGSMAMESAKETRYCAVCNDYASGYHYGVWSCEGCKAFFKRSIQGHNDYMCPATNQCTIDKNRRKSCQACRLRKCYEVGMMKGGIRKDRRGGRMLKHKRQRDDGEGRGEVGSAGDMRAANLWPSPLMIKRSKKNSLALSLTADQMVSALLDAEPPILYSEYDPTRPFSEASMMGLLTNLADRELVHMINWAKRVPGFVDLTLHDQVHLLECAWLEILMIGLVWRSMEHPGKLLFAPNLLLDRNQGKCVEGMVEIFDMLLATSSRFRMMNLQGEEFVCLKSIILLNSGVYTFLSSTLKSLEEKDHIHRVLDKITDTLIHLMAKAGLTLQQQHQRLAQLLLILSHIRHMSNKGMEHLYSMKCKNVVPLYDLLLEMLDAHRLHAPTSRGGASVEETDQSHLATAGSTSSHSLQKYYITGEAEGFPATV
Description: The experiment was conducted using the human breast cancer cell line MCF7 (ATCC HTB 22). The selected cellular response to be analyzed was the amount of expressed cathepsin D (Cath D), the expression of which is regulated by the estrogen receptor. […] The amount of Cath D secreted into the medium was determined with the aid of a commercial RIA (ELSA-CATH-D from CIS Bioindustries, Gif-sur-Yvette, France). The performance of the method is as follows:
A sample of the cell line MCF7 (4×10^5 cells) was distributed into plastic petridishes (suitable for the culturing of mammalian cells). The cells were suspended in the first medium (C).
The petridishes were incubated at 37° C. and 5% CO2 in a temperature and humidity controlled chamber.
The first medium (C) was replaced by the second medium, which consisted of fresh first medium (C). The following hormone additions were made:
The petridishes were incubated in the temperature and humidity controlled chamber under the same conditions as above.
72 hours after the hormone addition visual inspection of the number of cells and their morphology was performed. Medium from each petridish was transferred to Eppendorf tubes and centrifuged 7 minutes at 1000rpm (Eppendorf centrifuge). The amount of Cath D in the medium samples was analyzed with the aid of the commercial Cath D RIA (ELSA-CATH D)

estrogen receptor [2] = target: T1, estrogen receptor; experiment: pS2 secretion, additional set of experiments, MCF7 in 96-well trays, pS2 RIA; conditions: for relative amount of pS2 (no hormone added = 1): mcf7 cells, 48 h
Description: (§1) The amount of pS2 secreted into the medium was determined with the aid of a commercial RIA (ELSA pS2 from CIS Bioindustries, Gif-sur-Yvette, France).
(§2) Samples of the cells ZR 75-1 and MCF7, respectively, were distributed into plastic petridishes (suitable for the culturing of mammalian cells).
(§3) Samples of the cells ZR 75-1 ([…]) and MCF7 (2.5×10^4 cells/well), respectively, were distributed in 96-well trays. The cells were distributed in the same medium as used on day 1.
(§4) The wells were washed with 100 μl Coon's medium/well. The first medium was replaced by the second medium (B) without 1% FCS. The following hormone additions were made:
(§5) 48 hours after the hormone addition the number of cells and their morphology were investigated. Medium from each well was transferred to Eppendorf tubes. The possible amount of pS2 in the medium samples was analyzed with the aid of a commercial pS2 RIA (ELSA pS2 ).

estrogen receptor [3] = target: T1, estrogen receptor; experiment: Cathepsin D secretion, additional set of experiments, ZR 75-1 in 96-well trays, Cath D RIA
Description: The amount of Cath D secreted into the medium was determined with the aid of a commercial RIA (ELSA-CATD-D from CIS Bio-industries, Gif-sur-Yvette, France).
as §2
Samples of the cells ZR 75-1 (4×10^4 cells/well) and MCF7 (2.5×10^4 cells/well), respectively, were distributed in 96-well trays. The cells were distributed in the same medium as used on day 1.
as §4
48 hours after the hormone addition the number of cells and their morphology were investigated. Medium from each well was transferred to Eppendorf tubes. The possible amount of Cath D in the medium samples was analyzed with the aid of a commercial Cath D RIA (ELSA-CATH-D).

ZR 75-1 = experiment: Proliferation, amount of ATP after 6 days, ZR 75-1; assay type: cell-based, human
Description: The growth is determined by measuring the amount of ATP in the cells after incubation with ligands for 6 days. […]
Samples of the cells ZR 75-1 (8000 cells/well) and MCF7 (4000 cells/well), respectively, were distributed into microtiter plates having 96 wells.
The following hormone additions were made:
The medium was replaced by fresh medium of the same composition as on day 6, and hormone additions as on day 6.
6 days after hormone addition the number of cells and their morphology were investigated. Medium from each well was poured off. To each well was added 100 μl 1% TCA (trichloro acetic acid).

estrogen receptor [4] = target: T1, estrogen receptor; experiment: pS2 secretion, additional set of experiments, ZR 75-1 in 96-well trays, pS2 RIA; conditions: for relative amount of pS2 (no hormone added = 1): zr 75-1 cells, 48 h
Description: as §1, §2, §3, §4, §5

[5] = MCF7, 48 h, read-out: relative amount of pS2 (no hormone added = 1)
[6] = ZR-75-1, 48 h, read-out: relative amount of pS2 (no hormone added = 1)

## O=C(c1ccc(OCCN2CCCC2)cc1)c1c(-c2ccc(O)cc2)sc2cc(O)ccc12 [LY 117018]
Estrogen receptor [1]; MCF7, 72 h, read-out: relative amount of Cath D (no hormone added = 1)
  fold induction at 0.1 µM: 0.88
Estrogen receptor [1]; MCF7, 10^-7 M LY 117018, both in the absence and in the presence of 10^-8 M E2
  function on Cath D expression: acts as an estrogen antagonist
Estrogen receptor [2]; [5]
  fold induction at 0.001 µM: 0.89
  fold induction at 0.01 µM: 1
  fold induction at 0.1 µM: 0.93
  fold induction at 1 µM: 1
Estrogen receptor [2]; MCF7, 10 nM LY 117018 and 0.1 nM E2
  inhibition of the expression of pS2: inhibited down to the same level as in the absence of added hormone
Estrogen receptor [2]; MCF7, 10^-8 M LY 117018, presence of 10^-10 M E2
  function on pS2 expression: functions as an antagonist
Estrogen receptor [2]; MCF7, presence of 0.1 nM E2
  antagonist strength compared with Tamoxifen, pS2: stronger antagonist than Tamoxifen
Estrogen receptor [2]; MCF7, substance alone, without E2
  influence on the pS2 secretion: do not have an influence
Estrogen receptor [2]; 0.001 µM
  relative amount of pS2 (no hormone added = 1): 2.01
Estrogen receptor [2]; 0.01 µM
  relative amount of pS2 (no hormone added = 1): 1.11
Estrogen receptor [2]; 0.1 µM
  relative amount of pS2 (no hormone added = 1): 1.19
Estrogen receptor [2]; 1 µM
  relative amount of pS2 (no hormone added = 1): 1.18
Estrogen receptor [3]; 10 nM LY 117018 and 0.1 nM E2
  inhibition of the expression of Cath D: inhibited down to same level as in the absence of added hormone
Estrogen receptor [3]; 10^-8 M LY 117018, presence of 10^-10 M E2
  function on Cath D expression: functions as an antagonist
Estrogen receptor [3]; presence of 0.1 nM E2
  antagonist strength compared with Tamoxifen, Cath D: stronger antagonist than Tamoxifen
Estrogen receptor [3]; substance alone, without E2
  influence on the Cath D secretion: do not have an influence
ZR 75-1; 0.1 nM E2 and 10 nM LY 117018
  inhibition of growth: inhibited down to the same level as in the absence of added hormone
ZR 75-1; 10^-7 M LY 117018, presence of 10^-10 M E2
  function on growth: functions as an antagonist
ZR 75-1; Homo sapiens, ZR-75-1, 144 h, + 10^-6 M LY 117018, -E2, 6 days, read-out: relative amount of ATP (no hormone added = 1)
  activity at 1 µM: 69%
ZR 75-1; Homo sapiens, ZR-75-1, 144 h, + 10^-7 M LY 117018, -E2, 6 days, read-out: relative amount of ATP (no hormone added = 1)
  activity at 0.1 µM: 99%
ZR 75-1; Homo sapiens, ZR-75-1, 144 h, + 10^-8 M LY 117018, -E2, 6 days, read-out: relative amount of ATP (no hormone added = 1)
  activity at 0.01 µM: 89%
ZR 75-1; Homo sapiens, ZR-75-1, 144 h, + 10^-9 M LY 117018, -E2, 6 days, read-out: relative amount of ATP (no hormone added = 1)
  activity at 0.001 µM: 103%
ZR 75-1; presence of 0.1 nM E2
  antagonist strength compared with Tamoxifen, growth: stronger antagonist than Tamoxifen
Estrogen receptor [4]; ZR 75-1, 10 nM LY 117018 and 0.1 nM E2
  inhibition of the expression of pS2: inhibited down to the same level as in the absence of added hormone
Estrogen receptor [4]; ZR 75-1, 10^-8 M LY 117018, presence of 10^-10 M E2
  function on pS2 expression: functions as an antagonist
Estrogen receptor [4]; ZR 75-1, presence of 0.1 nM E2
  antagonist strength compared with Tamoxifen, pS2: stronger antagonist than Tamoxifen
Estrogen receptor [4]; ZR 75-1, substance alone, without E2
  influence on the pS2 secretion: do not have an influence
Estrogen receptor [4]; [6]
  fold induction at 0.001 µM: 0.9
  fold induction at 0.01 µM: 0.86
  fold induction at 0.1 µM: 0.78
  fold induction at 1 µM: 0.75
Estrogen receptor [4]; 0.001 µM
  relative amount of pS2 (no hormone added = 1): 1.96
Estrogen receptor [4]; 0.01 µM
  relative amount of pS2 (no hormone added = 1): 0.84
Estrogen receptor [4]; 0.1 µM
  relative amount of pS2 (no hormone added = 1): 0.91
Estrogen receptor [4]; 1 µM
  relative amount of pS2 (no hormone added = 1): 0.83
